Assays:
[1] = tested on: Ang II induced angiogenic response; assay: angiogenic response to locally delivered Ang II; assay type: in vivo; conditions: Ang II delivered locally in mice or rats
Description: (§1) 4. […] CYR61, an angiogenic factor, is induced by Angiotensin II (Ang II) in vascular cells and tissue. Likewise, Ang II induces an angiogenic reponse when Angil is delivered locally in mice or rats.

[2] = tested on: neointimal lesion formation; assay: rat carotid artery balloon injury model; assay type: in vivo; conditions: local delivery to adventitia via Alzet minipump; early (9 days) and late (21-28 days) post-ballooning
Description: Rat carotid arteries are balloon injured using a method described by Clowes et al. Lab. Invest. 1983; 49; 208-215. […] A P<0.05 is considered statistically significant.

[3] = tested on: restenotic lesion formation; assay: rabbit iliac stent model; assay type: in vivo, New Zealand White rabbit; conditions: for angiogenic response post-stenting: orally and locally via coated stent, 7 and 28 days post-stenting, vs placebo
Protocol: A combined angioplasty and stenting procedure is performed in New Zealand White rabbit iliac arteries. Iliac artery balloon injury is performed by inflating a 3.0×9.0 mm angioplasty balloon in the mid-portion of the artery followed by “pull-back” of the catheter for 1 balloon length. Balloon injury is repeated 2 times, and a 3.0×12 mm stent is deployed at 6 atm for 30 seconds in the iliac artery. Balloon injury and stent placement is then performed on the contralateral iliac artery in the same manner. A post-stent deployment angiogram is performed. […] The vascular section between the distal aorta and the proximal femoral arteries is excised and cleaned of periadventitial tissue. The stented section of artery is embedded in plastic and sections are taken from the proximal, middle, and distal portions of each stent. […] The vessel area is measured as the area within the EEL. Data are expressed as mean±SEM. […] A P<0.05 is considered statistically significant.
as §1

[4] = clinical study of aliskiren in dialysis patients after catheter insertion; assay type: in vivo, human; conditions: aliskiren 100 mg daily for 3 months; observation 6 months
Protocol: One hundred fifty prospective dialysis patients, who undergo successful insertion of an indwelling, large bore catheter, into a vein are selected for study. […] These drugs are administered for 3 consecutive months following catheter insertion.

Compound | inhibition of Ang II induced angiogenic response in vivo [1] | inhibition of neointimal lesions [2] | angiogenic response post-stenting [3] | mean neointimal thickness ([3]; vs placebo-treated animals) | percent stent stenosis ([3]; vs placebo-treated animals) | prevention or reduction of vascular access dysfunction [4]
CCCCC(=O)N(Cc1ccc(-c2ccccc2-c2nnn[nH]2)cc1)[C@H](C(=O)O)C(C)C [valsartan] | potent inhibition | potent inhibition | markedly inhibits | reduced | reduced | 
COCCCOc1cc(C[C@@H](C[C@H](N)[C@@H](O)C[C@H](C(=O)NCC(C)(C)C(N)=O)C(C)C)C(C)C)ccc1OC [aliskiren, 2(S),4(S),5(S),7(S)-N-(3-amino-2,2-dimethyl-3-oxopropyl)-2,7-di(1-methylethyl)-4-hydroxy-5-amino-8-[4-methoxy-3-(3-methoxy-propoxy)phenyl]-octanamide] | potent inhibition | potent inhibition | markedly inhibits |  |  | efficacy

— patent US20060013852A1, “Use of organic compounds” (priority 2002, published 2006)
